Results on three substances are retold here after PMC5667506, “Potent and selective inhibition of SH3 domains with dirhodium metalloinhibitors” (Chemical Science, 2015).

pKd: −log10 of the molar value. Rh2(OAc)3 = dirhodium(II) triacetate, bound to the side-chain carboxylate

Test [1] has as its target T1, Yes SH3 domain (Homo sapiens, UniProt P07947).
T1 construct: fyn, yes, lck, and src SH3 protein domains were prepared following published procedures; made in house
The test can be described thus: ITC binding to Yes SH3 domain. The conditions noted are these: Yes SH3, ITC. On the procedure: (§1) All chemical reagents were purchased from Sigma-Aldrich and were used without further purification.
(§2) Peptide synthesis. All peptides were synthesized manually or with an AAPPTEC APEX 396 Automated Multipeptide Synthesizer using standard solid-phase Fmoc protocols.1,2 Peptides were prepared as C-terminal amides using Rink amide MBHA resin (AAPPTEC) and were acetylated at the N-terminus prior to cleavage from the resin. Peptides and metallopeptides were purified by reverse-phase HPLC.
(§3) HPLC separation. Reverse-phase HPLC was performed on a Shimadzu CBM-20A instrument with Phenomenex Jupiter 4μ Proteo 90A (250 × 15 mm preparative) and Phenomenex Jupiter 4μ Proteo 90A (250 × 4.6 mm analytical) columns. The columns were eluted with a gradient of acetonitrile in water (10-90%) (flow rates of 8 mL/min and 1 mL/min for preparative and analytical columns, respectively). Trifluoroacetic acid (0.1%) was added to all eluents.
(§4) FPLC separation. Analytical FPLC was performed on an ÄKTA instrument with Superdex Peptide PE 7.5/300 column. The column was equilibrated with buffer (150 mM NaCl, 50 mM Tris, pH 7.0) at flow rate of 0.2 mL/min.
(§5) ITC analysis. ITC experiments were carried out on a VP-ITC instrument (MicroCal) at 25 °C. Titrations of 275 μM peptide into 18 μM SH3 domain proteins were used for all titrations, except for the titration of S2ERh into Lyn SH3 domain, where the lower concentrations of 69 µM S2ERh peptide and 4 µM Lyn SH3 were used to attain a c-value for the titration within the accepted limts for ITC experiments ([…]).3
(§6) Heats of dilutions were measured independently for each experiment by titrating 275 μM peptide into buffer (20 mM phosphate buffer, pH 7, 150 mM NaCl, 1 mM EDTA). All experimental data were fitted using a one set of sites binding model in Origin software (MicroCal) except for the data with Hck SH3 domain. With Hck only, the non-peptide specific binding of dirhodium tetraacetate to Hck SH3 domain could not be treated as negligible, despite the very weak interaction (88 µM), due to the larger enthalpy contribution observed for non-specific binding to this SH3 domain, so the titrations of peptide into Hck were fitted using a 2 set of sites binding model where the stoichiometry for the second set of sites was fixed at 2.0. […]
(§7) Mass spectrometry. ESI-MS was performed on a Bruker Daltonics micrOTOF instrument.
(§8) Known compounds and proteins. Several metallopeptides (S2ERh, L3ERh, R5ERh, and 13DRh) were reported previously and were prepared by known protocols;4 alkyne-diazo 3,5 3-azido-7-hydroxycoumarin6 were synthesized following reported procedures; fyn, yes, lck, and src SH3 protein domains were prepared following published procedures.5 Abl, hck, and lyn SH3 domain plasmids were adapted from the previously reported genes;7 the gene templates were obtained from Addgene, ID

Test [2] deals with T2, Hck SH3 domain (Homo sapiens, UniProt P08631).
T2 construct: The hck SH3 domain was amplified by PCR using Phusion DNA polymerase; GST (N, cleaved yes); made in house; host or cells: E. coli BL21 (DE3)
T2 sequence (P08631 77-139): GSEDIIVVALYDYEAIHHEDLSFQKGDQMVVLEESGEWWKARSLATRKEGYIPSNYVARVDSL
Kind of test: ITC binding to Hck SH3 domain (two-sets-of-sites fit). The conditions noted are these: high affinity specific site. As to the method:
as §1, §2
HPLC separation. Reverse-phase HPLC was performed on a Shimadzu CBM-20A instrument with Phenomenex Jupiter 4μ Proteo 90A (250 × 15 mm preparative) and Phenomenex Jupiter 4μ Proteo 90A (250 × 4.6 mm analytical) columns. The columns were eluted with a gradient of acetonitrile in water (10-90%) (flow rates of 8 mL/min and 1 mL/min for preparative and analytical columns, respectively). Trifluoroacetic acid (0.1%) was added to all eluents. […]
as §5, §6, §7
Known compounds and proteins. Several metallopeptides (S2ERh, L3ERh, R5ERh, and 13DRh) were reported previously and were prepared by known protocols;4 alkyne-diazo 3,5 3-azido-7-hydroxycoumarin6 were synthesized following reported procedures; fyn, yes, lck, and src SH3 protein domains were prepared following published procedures.5 Abl, hck, and lyn SH3 domain plasmids were adapted from the previously reported genes;7 the gene templates were obtained from Addgene, ID […]
Table S1. Table of the thermodynamic parameters for binding of metallopeptides to SH3 domains, determined by isothermal […]
Protein Peptide Stoichiometry Kd ΔH -TΔS ΔG
(nM) (kcal mol-1) (kcal mol-1) (kcal mol-1)
* The binding isotherms for metallopeptide interactions with Hck were fitted using a two -sets-of-sites model with the stoichiometry for the second set of sites fixed to 2.0. The second set of binding sites was used to account for the weak, but not negligable, binding of the peptide to another surface of Hck SH3 domain, presumably through non-specific interactions of the dirhodium tetraacetate group. The thermodynamics for the high affinity specific binding site interaction are provided in this

In test [3] the target is T3, Abl SH3 domain (Homo sapiens, UniProt P00519).
T3 construct: The abl SH3 domain was amplified by PCR using Phusion DNA polymerase; GST (N, cleaved yes); made in house; host or cells: E. coli BL21 (DE3)
T3 sequence (P00519 60-121): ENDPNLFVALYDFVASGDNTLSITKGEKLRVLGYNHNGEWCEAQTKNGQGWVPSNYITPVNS
The test can be described thus: ITC binding to Abl SH3 domain. On the procedure: as §1, §2, §3, §4, §5, §6, §7, §8

The target of test [4] is T4, Lck SH3 domain (Homo sapiens, UniProt P06239).
T4 construct: fyn, yes, lck, and src SH3 protein domains were prepared following published procedures; made in house
T4 sequence (P06239 61-121 limits assumed): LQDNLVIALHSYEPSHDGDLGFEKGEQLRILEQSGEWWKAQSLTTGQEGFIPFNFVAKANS
The test can be described thus: ITC binding to Lck SH3 domain. As to the method: All chemical reagents were purchased from Sigma-Aldrich and were used without further purification. […]
as §5, §6
Known compounds and proteins. […]

T1 sequence (P07947 91-152 limits assumed): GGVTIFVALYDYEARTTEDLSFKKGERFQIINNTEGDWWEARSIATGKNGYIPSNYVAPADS

As for AcVELARRPLPPLPN-NH2 [S2E^Rh], the Stoichiometry worked out at 0.79 in test [1], 0.95 in test [2], 1.5 in test [3] and 1.1 in test [4]. Besides, the “-TΔS” value in test [1] (25 °C) came out at 38.1 kJ/mol; in test [2] (25 °C) it was 28.9 kJ/mol; in test [3] (25 °C), 44.4 kJ/mol; in test [4] (25 °C), 10.9 kJ/mol. Besides, the ΔG was -35.6 kJ/mol in test [1] (25 °C), -43.5 kJ/mol in test [2] (25 °C), -29.7 kJ/mol in test [3] (25 °C) and -36 kJ/mol in test [4] (25 °C). Further, the ΔH in test [1] (25 °C) was -73.6 kJ/mol; in test [2] (25 °C), -72 kJ/mol; in test [3] (25 °C), -74.5 kJ/mol; in test [4] (25 °C) it was -46.9 kJ/mol.

For “AcVELARRPLPPLPN-NH2 (Ac-VE(Rh2(OAc)3)LARRPLPPLPN-NH2; also: metal complex: Glu2 carboxylate bound to dirhodium(II) triacetate) [S2E^Rh, rhodium(II) metallopeptide made from S2E peptide (Ac…-NH2) and Rh2(tfa)(OAc)3]”, the negative logarithm of the Kd (pKd) in test [3] (25 °C) is 5.24; in test [4] (25 °C) it was 6.32.

For the substance “AcVELARRPLPPLPN-NH2 (Ac-VELARRPLPPLPN-NH2; also: Glu2 side-chain carboxylate bound to Rh2(OAc)3) [S2E^Rh, rhodium(II) metallopeptide made from S2E peptide (Ac…-NH2) and Rh2(tfa)(OAc)3]”, the pKd was 6.21 in test [1] (25 °C, read-out: SH3 Kd) and 7.59 in test [2] (25 °C).
